Assay results: patent US11155552B2, “Rutaecarpine analogs and applications thereof” (TAIPEI MEDICAL UNIVERSITY, priority 2018, dated 2021)

How the values were obtained:
H460 = experiment: MTT cell viability assay, H460; type: cell-based; settings: H460 cells; 0-20 μM; 24 h; FIG. 1(c)
Method: (§1) An MTT assay to test cell viability was performed based on the conversion of the yellow tetrazolium salt to the purple formazan product. Cells (10^4 cells/well) were grown in a 96-well plate supplemented with standard culture medium. Cells were treated with RUT and F-RUT (0-20 μM) for 24 h. An MTT stock solution (5 mg of MTT/mL of phosphate-buffered saline; PBS) was added to the growing cultures for 2 h. The absorbance was measured with a spectrophotometer at 560 nm. DMSO alone was measured as a reading control. Data were reported as the mean±SEM values of five independent determinations.

NF-κB = experiment: NF-κB-dependent luciferase reporter assay in LPS-induced macrophages; type: cell-based; settings: 0-2.5 μM; LPS 40 ng/mL 24 h; FIG. 2(b)
Method: RAW264.7 macrophages were seeded in a 96-well plate with DMEM. Then, cells were transfected with the pGL4.32 [luc2P/NF-κB-RE/Hygro] (Promega, Madison, Wis., USA) plasmid reporter gene using TurboFect Transfection Reagent (Fermentas, Glen Burnie, Md., USA). At 24 h after transfection, cells were treated with LPS (40 ng/mL) and F-RUT for 24 h in serum-free medium. Then the luciferase activity was detected by the luminescence measured in a luminescence microplate reader (Thermo Varioskan Flash, Waltham, Mass., USA) using a ONE-Glo luciferase assay kit (Promega). Luciferase activities were normalized to protein concentrations.

iNOS = iNOS protein expression in LPS-treated RAW264.7 macrophages (Western blot); type: cell-based; settings: FIG. 2(a)
Method: (§2) Protein samples were separated and resolved by sodium dodecylsulfate polyacrylamide gel electrophoresis (SDS-PAGE) and electrotransferred onto a polyvinylidene difluoride (PVDF) membrane. The membrane was incubated with a primary antibody at 4° C. overnight, and then incubated with a horseradish peroxidase (HRP)-conjugated secondary immunoglobulin G (IgG) antibody; immunoreactive bands were visualized with PerkinElmer enhanced chemiluminescent reagents.

KLF10 KO mice [1] = experiment: Blood-air-barrier thickness by TEM in OVA/Alum-challenged KLF10 KO mice; type: in vivo; settings: KLF-10 KO mice; oral; OVA/Alum group 586 nm, control group 348 nm; FIG. 6
Method: Blood-Air-Barrier (alveolar-capillary membrane), gas exchanging region of the lungs, was measured to perform the lung function. After the KLF-10 KO mice were challenged with OVA/Alum and oral administration of RUT or F-RUT, the lung was harvested to measure the thickness of blood-air-barrier by TEM. The average thickness of blood-air-barrier was significant increased in OVA/Alum group (586 nm compared to 348 nm in control group) and reversed by RUT or F-RUT (418 and 393 nm, respectively), see FIG. 6.

COX-2 [2] = experiment: COX-2 protein expression in LPS-treated RAW264.7 macrophages (Western blot); type: cell-based; settings: FIG. 2(a)
Method: as §2

BALB/c mice = experiment: Lung inflammation in OVA/alum-challenged BALB/c mice; type: in vivo; settings: alternate-day oral administration, FIG. 5(a)
Method: (§3) BALB/c mice (six weeks of age) were obtained from the Animal Center of the College of Medicine, National Taiwan University (Taipei, Taiwan), and sensitized with an intraperitoneal injection of 20 μg of ovalbumin (OVA) emulsified in 2 mg of aluminum hydroxide in a total volume of 200 μL phosphate-buffered saline (PBS) on day 0, and boosted with 50 μg of OVA emulsified in 4 mg of aluminum hydroxide on days 14 and 28. RUT or F-RUT was given by oral administration on days 30, 32, 34, 36, and 38. For post-challenge, all mice were treated intranasally with OVA (100 μg in a total volume of 40 μL PBS) on days 40, 41, 42, and 43. At 24 h after the last OVA challenge, mice were sacrificed, and their organs were collected. All experimental procedures were reviewed and approved by the Institutional Animal Care and Use Committee or Panel. Lung tissues were fixed in 4% paraformaldehyde (sc-281692; Santa Biotechnology) and embedded in paraffin. Tissue sections were made at a 5-μm thickness, and stained with hematoxylin and eosin (H&E) solution for examination of inflammation.

CL1-3 = experiment: MTT cell viability assay, CL1-3; type: cell-based; settings: CL1-3 cells; 0-20 μM; 24 h; FIG. 1(c)
Method: as §1

RAW264.7 macrophages = experiment: NO production (nitrite, Griess reagent) by LPS-treated RAW264.7 macrophages; type: cell-based; settings: LPS 40 ng/mL co-treatment 24 h; 0-20 μM; FIG. 1(a)
Method: The RAW264.7 macrophage cell line and A2780 ovarian carcinoma cells were grown in Dulbecco's modified Eagle medium (DMEM) containing 10% fetal bovine serum (FBS), 100 U/mL penicillin, 100 μg/mL streptomycin, 1 mM sodium pyruvate, 4.5 g/L glucose, 4 mM 1-glutamine, and 1.5 g/L sodium bicarbonate at 37° C. in a humidified atmosphere with 5% CO2. Primary human aortic ECs (HAECs) were grown in a MesoEndo Endothelial Cell Growth Medium Kit (Cell Applications, San Diego, Calif., USA) supplemented with 10% FBS at 37° C. in a humidified atmosphere with 5% CO2.
(§4) NO production was evaluated by measuring the nitrite concentration in supernatants of cultured RAW264.7 macrophages. Cells were first seeded at a density of 2×10^5 cells/mL in 24-well plates for 24 h, followed by co-treatment with different concentrations of F-RUT with lipopolysaccharide (LPS) (40 ng/mL) for another 24 h. The amount of nitrite in cell culture supernatants was detected using the Griess reagent (1% sulfanilamide in 5% phosphoric acid and 0.1% naphthylethylenediamine dihydrochloride in water). Data are reported as the mean±standard error of the mean (SEM) values of three independent determinations.

RAW264.7 = experiment: MTT cell viability assay, RAW264.7; type: cell-based
Method: as §1

COX-2 [3] = experiment: COX-2 enzyme activity
eNOS = eNOS phosphorylation in human aortic endothelial cells (immunoblotting); type: cell-based; settings: HAECs; 20 μM; 15 min; normalized with total eNOS
Method: as §2
(§5) TRPV1 is reportedly present in ECs of arteries. To validate the expression of TRPV1 in the endothelium, the TRPV1 protein of human aortic ECs (HAECs) was detected using immunoblotting; the method of Western Blot Analysis has been stated in Example 4. F-RUT treatment (20 μM) for 15 min increased TRPV1 protein amounts two-fold compared to the control group after normalization with α-tubulin levels (FIG. 4). The effect of F-RUT on the phosphorylation of eNOS in HAECs is further examined because NO production is consequently regulated by the phosphorylation of eNOS.

zebrafish = experiment: LPS-induced ROS level in zebrafish; type: in vivo; settings: 5 ng/ml F-RUT, LPS 10 and 20 ng/ml, FIG. 7
A2780 cells [4] = experiment: Transwell Matrigel cell invasion assay; type: cell-based; settings: 0-2.5 μM, 24 h, FIG. 3(b)
Method: A2780 cell invasion was evaluated using 24-well transwell inserts (8-μm-pore filters, Merck Millipore) individually coated with Matrigel (BD Biosciences, Bedford, Mass., USA). A2780 cells (2×10^4 cells in each well) were cultured for 24 h with serum-free minimum essential medium (MEM) and then treated with F-RUT (1.25 or 2.5 μM) for another 24 h in the upper chamber of the transwell. Medium containing 10% FBS was placed in the lower chamber. At the end of incubation, non-migrated cells were removed using a cotton swab; cells that had penetrated to the opposite surface of the filter were fixed with 4% formaldehyde and stained with 2% crystal violet. Stained cells were counted and photographed under a phase-contract optical microscope at 200× magnification. Three independent experiments were performed as described elsewhere.

TNF-α = TNF-α release by LPS-treated RAW264.7 macrophages (mouse TNF-α Quantikine kit); type: cell-based; settings: FIG. 1(b)
Method: FIGS. 1A thru 1C show the effects of 10-fluoro-2-methoxyrutaecarpine (F-RUT) on nitric oxide (NO) and tumor necrosis factor (TNF)-α release by lipopolysaccharide (LPS)-treated (40 ng/mL) RAW264.7 macrophages: (a) NO levels were detected in culture medium using the Griess reaction; (b) TNF-α release in cell supernatants was detected using a mouse TNF-α Quantikine kit; (c) Cell viability upon F-RUT and rutaecarpine (RUT) treatment for 24 h in an MTT assay. Values are expressed as the mean±SE. *p<0.05, **p<0.01.
as §4

KLF10 KO mice [5] = experiment: Lung inflammation and collagen formation in OVA/alum-challenged KLF10 KO mice; type: in vivo
Method: as §3
KLF10 gene is regulated by transforming growth factor (TGF)-β/Smad. Deletion of Klf10 in mice is associated with significant inflammation of the lungs challenged with OVA/alum for 44 days. In another experiment, KLF-10 KO mice was used. […]

TRPV1 = TRPV1 protein in human aortic endothelial cells (immunoblotting); type: cell-based; settings: HAECs; 20 μM; 15 min; normalized with α-tubulin
Method: as §2, §5

A2780 cells [6] = experiment: Wound-healing cell migration assay; type: cell-based; settings: 0-5 μM, 0-24 h, FIG. 3(a)
Method: A2780 cells were cultured at a density of 2×10^5 cells/well in 6-well plates and incubated at 37° C. for 24 h. A centerline in the cells was scratched using a 200-μL pipette tip and washed with PBS. Then, new complete medium was added and treated with or without 1 and 2.5 μM of F-RUT for 24 h. At the endpoint of incubation, cells were examined and photographed with an optical microscope. The distance between the edges of the scratched area was measured and calculated to estimate the migratory ability of cells.
As illustrated in FIG. 3(a), wound-healing assays used an ovarian carcinoma A2780 cell line in the presence of F-RUT (0-5 μM) for 0-24 h. The migration rate was measured using imaging software, and Student's t-test was used for the statistical analysis.

COX-2 enzyme activity (COX-2 [3]) | SMILES | cytotoxicity (H460) | LPS-induced NF-κB transcriptional activity (NF-κB) | iNOS protein expression (iNOS) | average thickness of blood-air-barrier (KLF10 KO mice [1]) [nm] | COX-2 protein expression (COX-2 [2]) | OVA/alum-induced lung inflammation (BALB/c mice) | cytotoxicity (CL1-3) | NO production (RAW264.7 macrophages) | cytotoxicity (RAW264.7; RAW264.7 cells, 0-20 μM, 24 h, FIG. 1(c)) | cytotoxicity compared to RUT (RAW264.7; compared to RUT) | increase of phosphorylation of eNOS compared to the control group (eNOS) [fold] | LPS-induced ROS level (zebrafish) | cell invasion (A2780 cells [4]) | TNF-α released into the medium (TNF-α) | collagen formation around the bronchus (KLF10 KO mice [5]; KLF10 KO mice, oral administration, 25% in OVA/Alum group, FIG. 5(c)) [%] | OVA/alum-induced lung inflammation (KLF10 KO mice [5]; KLF-10 KO mice, alternate-day oral administration, FIG. 5(b)) | increase of TRPV1 protein amounts compared to the control group (TRPV1) | cell migration (A2780 cells [6])
the enzyme activity is also inhibited | COc1ccc2c(=O)n3c(nc2c1)-c1[nH]c2ccc(F)cc2c1CC3 [F-RUT, 10-fluoro-2-methoxyrutaecarpine] | substantially no cytotoxicity | inhibited LPS-induced NF-κB transcriptional activity | suppressed their expressions in a concentration-dependent manner | 393 | suppressed their expressions in a concentration-dependent manner | ameliorated the OVA/alum-induced lung inflammation | substantially no cytotoxicity | suppressed NO production in a concentration-dependent (0-20 μM) manner | substantially no cytotoxicity | less cytotoxicity | 1.4 | suppressed the LPS-induced ROS | invasion inhibitory activity | suppressive effect of TNF-α released into the medium | 18 | ameliorated the OVA/alum-induced lung inflammation | two-fold | significant effects against cell migration
 | O=c1c2ccccc2nc2n1CCc1c-2[nH]c2ccccc12 [RUT, Rutaecarpine] |  |  |  | 418 |  |  |  |  |  |  |  |  |  |  |  |  |  | 
